In assay [1] the target is T1, Hypoxanthine-guanine phosphoribosyltransferase (Homo sapiens) (UniProt P00492).
T1 sequence (whole entry): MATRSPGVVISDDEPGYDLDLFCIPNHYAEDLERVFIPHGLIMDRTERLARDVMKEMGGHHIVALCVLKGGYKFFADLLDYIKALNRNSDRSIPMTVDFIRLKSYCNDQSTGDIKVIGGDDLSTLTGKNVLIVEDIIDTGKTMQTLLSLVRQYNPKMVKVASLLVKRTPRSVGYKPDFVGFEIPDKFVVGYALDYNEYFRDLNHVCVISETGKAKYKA
Put plainly: Compound was tested for the inhibition of Hypoxanthine-Guanine Phosphoribosyltransferase (from H.Ep.2 cells); no activity.

Assay [2] is filed under the species Mus musculus. Kind of assay: Compound was tested for ability to extend the life span of Plasmodium berghei infected mice (Mus musculus); no activity. It is filed as functional, organism-based.
Assay [3] has as its system Mus musculus. Put plainly: Compound was tested for the effective dose required for the inhibition of Trypanosoma rhodesiense in mice at 106 mg/kg dose in mice; (1 mice survived of 5 treated). Format: functional.
In assay [4] the test system is Mus musculus. Put plainly: Compound was tested for the effective dose required for the inhibition of Trypanosoma rhodesiense in mice at 212 mg/kg dose in mice; (1 mice survived of 5 treated). Format: functional.
The subject of assay [5] is Mus musculus. Kind of assay: Compound was tested for the effective dose required for the inhibition of Trypanosoma rhodesiense in mice at 424 mg/kg dose in mice; (2 mice survived of 5 treated). Format: functional.

Experimental findings from ChEMBL document CHEMBL1121545, “Synthesis of potential inhibitors of hypoxanthine-guaine phosphoribosyltransferase for testing as antiprotozoal agents. 2. 1-Substituted hypoxanthines” (1980) are described below.

Activity calls are given as the source filed them. No cut-off for these calls is given here.

Take `O=C(Nc1ccc(Cn2cnc3ncnc-3c2O)cc1)c1ccc(S(=O)(=O)F)cc1`: the outcome (in assay [1]; in the assay filed under Mus musculus [2]) was inactive.

As for `O=C(Nc1ccc(Cn2cnc3ncnc-3c2O)cc1)c1ccc(Cl)cc1`, the outcome (in assay [1]; in the assay listed under Mus musculus [2]) was inactive.

In turn, `O=C(CBr)NCCn1cnc2ncnc-2c1O` showed an Activity in the assay on Mus musculus [3] of 1. For the same compound, the Survivals in the assay with Mus musculus [4] worked out at 1; in the assay with Mus musculus [5], 2.

As to `OCCOc1[nH]cnc2ncnc1-2`, the result (in assay [1]; in the assay listed under Mus musculus [2]) was inactive.

`[N-]=[N+]=NCCn1cnc2ncnc-2c1O`: the result (in assay [1]; in the assay filed under Mus musculus [2]) was inactive.

For `O=C(CBr)Nc1ccc(Cn2cnc3ncnc-3c2O)cc1`, the result (in assay [1]; in the assay listed under Mus musculus [2]) was inactive.

`NCCn1cnc2ncnc-2c1O`: the outcome (in assay [1]; in the assay listed under Mus musculus [2]) was inactive.

In the case of `O=[N+]([O-])c1ccc(Cn2cnc3ncnc-3c2O)cc1`, the result (in assay [1]; in the assay listed under Mus musculus [2]) was inactive.

As for `O=C(Nc1ccc(Cn2cnc3ncnc-3c2O)cc1)c1cccc(S(=O)(=O)F)c1`, the outcome (in assay [1]; in the assay filed under Mus musculus [2]) was inactive.

Regarding `Oc1c2ncnc-2ncn1CCCl`, the result (in assay [1]; in the assay filed under Mus musculus [2]) was inactive.

Take `Nc1ccc(Cn2cnc3ncnc-3c2O)cc1`: the outcome (in assay [1]; in the assay filed under Mus musculus [2]) was inactive.
